According to ChEMBL document CHEMBL5725462, “Substituted triazolopyridines” (2017):
pIC50: −log10 of the molar value.

Target: T1, Dual specificity protein kinase TTK (Homo sapiens, UniProt P33981)
T1 sequence (P33981 whole entry): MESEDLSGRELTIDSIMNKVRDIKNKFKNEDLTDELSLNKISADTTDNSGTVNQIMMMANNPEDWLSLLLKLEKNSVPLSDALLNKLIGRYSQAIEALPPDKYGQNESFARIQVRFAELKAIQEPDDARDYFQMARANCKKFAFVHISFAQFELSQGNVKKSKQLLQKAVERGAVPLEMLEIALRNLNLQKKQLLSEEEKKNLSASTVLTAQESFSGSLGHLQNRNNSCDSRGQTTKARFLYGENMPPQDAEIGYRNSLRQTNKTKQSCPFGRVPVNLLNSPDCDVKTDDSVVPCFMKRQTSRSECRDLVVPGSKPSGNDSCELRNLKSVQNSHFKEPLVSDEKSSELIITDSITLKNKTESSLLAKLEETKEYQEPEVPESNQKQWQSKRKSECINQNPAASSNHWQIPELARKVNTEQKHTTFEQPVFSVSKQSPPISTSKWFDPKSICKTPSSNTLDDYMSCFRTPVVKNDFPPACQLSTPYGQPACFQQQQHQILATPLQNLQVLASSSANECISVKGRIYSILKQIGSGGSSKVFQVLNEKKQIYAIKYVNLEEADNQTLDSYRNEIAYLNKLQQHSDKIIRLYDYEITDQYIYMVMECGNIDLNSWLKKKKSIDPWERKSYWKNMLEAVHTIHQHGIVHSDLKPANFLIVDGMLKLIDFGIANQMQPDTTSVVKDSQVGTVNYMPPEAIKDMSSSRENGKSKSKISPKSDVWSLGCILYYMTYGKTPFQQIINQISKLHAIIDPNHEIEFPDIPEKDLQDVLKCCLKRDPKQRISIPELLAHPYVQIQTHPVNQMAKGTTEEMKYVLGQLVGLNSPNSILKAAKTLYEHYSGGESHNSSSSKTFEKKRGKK
Assay: The concentration of Mps-1 in the assay was adjusted to the activity of the enzyme lot and was chosen appropriate to have the assay in the linear range, typical enzyme concentrations were in the range of about 1 nM (final conc. in the 5 μl assay volume).

- pIC50: > 9.00
Compound: COc1cc(C(=O)N2CC3(COC3)C2)ccc1Nc1nc2ccc(-c3ccc(C(=O)NCc4ccc(F)cc4)nc3)cn2n1
